This test relates to CD2F1 mice, L1210 leukemia ip, survival T/C. Briefly: NCI In Vivo Anticancer Drug Screen. Data for tumor model L1210 Leukemia (intraperitoneal) in CD2F1 (CDF1) mice. The conditions noted are these: higher = longer survival. In a few lines: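 Antitumor effect is scored in animals hosting a serially transplanted tumor. Values compare compound-dosed animals against vehicle-only controls as a simple quotient.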

Setting [1] is: endpoint: mean survival time, dose: 100.0 mg/kg/injection, schedule: Q04DX003 (ip), vehicle: saline with Tween-80.
The mark [2] stands for this setting: endpoint: mean survival time, dose: 200.0 mg/kg/injection, schedule: Q04DX003 (ip), vehicle: saline with Tween-80.
The mark [3] stands for this setting: endpoint: mean survival time, dose: 400.0 mg/kg/injection, schedule: Q04DX003 (ip), vehicle: saline with Tween-80.
Where [4] appears, read: endpoint: mean survival time, dose: 100.0 mg/kg/injection, schedule: Q04DX002 (ip), vehicle: saline.
Setting [5] is: endpoint: mean survival time, dose: 100.0 mg/kg/injection, schedule: Q01DX009 (ip), vehicle: saline with Tween-80.
The mark [6] stands for this setting: endpoint: mean survival time, dose: 200.0 mg/kg/injection, schedule: Q01DX009 (ip), vehicle: saline with Tween-80.
Where [7] appears, read: endpoint: mean survival time, dose: 400.0 mg/kg/injection, schedule: Q01DX009 (ip), vehicle: saline with Tween-80.
[8] abbreviates: endpoint: mean survival time, dose: 100.0 mg/kg/injection, schedule: Q04DX002 (ip), vehicle: saline with Tween-80.
[9] abbreviates: endpoint: mean survival time, dose: 25.0 mg/kg/injection, schedule: Q01DX009 (ip), vehicle: saline.
[10] abbreviates: endpoint: mean survival time, dose: 50.0 mg/kg/injection, schedule: Q01DX009 (ip), vehicle: saline.

“And” between values parts separate entries of the source, which are not always exact repeats. Equal values may be shown once. Toxic doses and inconclusive results are not listed.

Regarding `Cc1nc(C(Cl)(Cl)Cl)[nH]c(=O)c1SCCO`, the T/C is, setting by setting: (endpoint: median survival time, dose: 25.0 mg/kg/injection, schedule: Q01DX009 (ip), vehicle: distilled water + alcohol) 97 % of control and 100 % of control and 102 % of control; (endpoint: median survival time, dose: 25.0 mg/kg/injection, schedule: Q01DX009 (sc), vehicle: distilled water + Tween-80 + alcohol) 101 % of control; (endpoint: median survival time, dose: 50.0 mg/kg/injection, schedule: Q01DX009 (sc), vehicle: distilled water + Tween-80 + alcohol) 101 % of control; (endpoint: median survival time, dose: 100.0 mg/kg/injection, schedule: Q01DX009 (sc), vehicle: distilled water + Tween-80 + alcohol) 101 % of control; (endpoint: median survival time, dose: 200.0 mg/kg/injection, schedule: Q01DX009 (sc), vehicle: distilled water + Tween-80 + alcohol) 103 % of control.

Consider `CC12CCC(O1)C1C(=O)NC(=O)C12` (stereo unspecified), for which the T/C reads like this: under setting [1], 94 % of control; under setting [2], 89 % of control; under setting [3], 98 % of control.

For the molecule `NC(=O)NNC(=O)C(Cl)(Cl)Cl`, the T/C under setting [4] is 103 % of control.

On to `CC(=O)OC1CCC2(C)C(CC=C3C2CCC2(C)C3CCC2C(C)CCCC(C)C)C1` (stereo unspecified), for which the T/C is 89 % of control under setting [5], 89 % of control under setting [6] and 91 % of control under setting [7].

For `N#CCCOS(=O)(=O)c1cccc([N+](=O)[O-])c1`, the T/C under setting [1] is 98 % of control, the T/C under setting [2] is 101 % of control and the T/C under setting [3] is 93 % of control.

With `NN1C(=O)Cc2ccccc2C1=O`, the T/C reads like this: under setting [5], 103 % of control; under setting [6], 109 % of control; under setting [7], 105 % of control.

With `CC(=O)O.[Th]`, the T/C by setting is: (endpoint: mean survival time, dose: 100.0 mg/kg/injection, schedule: Q01DX001 (ip), vehicle: saline) 92 % of control; (endpoint: mean survival time, dose: 400.0 mg/kg/injection, schedule: Q01DX001 (ip), vehicle: saline) 92 % of control.

As to `Cc1cc(=O)n(Cc2ccccc2)n1-c1ccccc1`, the T/C is, setting by setting: (endpoint: mean survival time, dose: 25.0 mg/kg/injection, schedule: Q04DX002 (ip), vehicle: saline with Tween-80) 97 % of control; (endpoint: mean survival time, dose: 50.0 mg/kg/injection, schedule: Q04DX002 (ip), vehicle: saline with Tween-80) 100 % of control; under setting [8], 87 % of control; under setting [1], 98 % of control.

Turning to `CN(C)c1ccc(N=Nc2cccc(C(=O)[O-])c2)cc1.CN(C)c1ccc(N=Nc2cccc(C(=O)[O-])c2)cc1.NC1CCCCC1N.O=[N+]([O-])O.[Pt+4]`, the T/C by setting is: (endpoint: median survival time, dose: 3.12 mg/kg/injection, schedule: Q04DX003 (ip), vehicle: saline with Tween-80) 104 % of control and 108 % of control; (endpoint: median survival time, dose: 6.25 mg/kg/injection, schedule: Q04DX003 (ip), vehicle: saline with Tween-80) 105 % of control and 110 % of control; (endpoint: median survival time, dose: 12.5 mg/kg/injection, schedule: Q04DX003 (ip), vehicle: saline with Tween-80) 120 % of control and 105 % of control; (endpoint: median survival time, dose: 25.0 mg/kg/injection, schedule: Q04DX003 (ip), vehicle: saline with Tween-80) 110 % of control; (endpoint: median survival time, dose: 100.0 mg/kg/injection, schedule: Q04DX003 (ip), vehicle: saline with Tween-80) 212 % of control and 313 % of control; (endpoint: median survival time, dose: 200.0 mg/kg/injection, schedule: Q04DX003 (ip), vehicle: saline with Tween-80) 361 % of control.

Consider `O=C1CCCc2ccc(Cl)cc21`, for which the T/C is 96 % of control (endpoint: mean survival time, dose: 100.0 mg/kg/injection, schedule: Q04DX003 (ip), vehicle: saline); 97 % of control (endpoint: mean survival time, dose: 200.0 mg/kg/injection, schedule: Q04DX003 (ip), vehicle: saline); 108 % of control (endpoint: mean survival time, dose: 400.0 mg/kg/injection, schedule: Q04DX003 (ip), vehicle: saline).

As to `O=C(/C(=N\O)c1ccc(Cl)cc1)c1ccc(Cl)cc1`, the T/C is 95 % of control under setting [1] and 87 % of control under setting [2].

As to `COC1=CC(c2ccccc2[N+](=O)[O-])OC1=O` (stereo unspecified), the T/C under setting [5] is 97 % of control; the T/C under setting [1] was 96 % of control; the T/C under setting [6] is 91 % of control; the T/C under setting [2] was 91 % of control; the T/C under setting [7] is 91 % of control; the T/C under setting [3] was 93 % of control.

On to `O/N=C\c1cc[n+](CC[n+]2ccc(/C=N/O)cc2)cc1`, for which the T/C was 97 % of control (endpoint: mean survival time, dose: 25.0 mg/kg/injection, schedule: Q04DX002 (ip), vehicle: other); 94 % of control (endpoint: mean survival time, dose: 50.0 mg/kg/injection, schedule: Q04DX002 (ip), vehicle: other); 108 % of control (endpoint: mean survival time, dose: 100.0 mg/kg/injection, schedule: Q04DX002 (ip), vehicle: other).

For the molecule `O=C(O)CNCC(C(=O)O)C(=O)O`, the T/C reads like this: (endpoint: mean survival time, dose: 25.0 mg/kg/injection, schedule: Q04DX002 (ip), vehicle: saline) 96 % of control; (endpoint: mean survival time, dose: 50.0 mg/kg/injection, schedule: Q04DX002 (ip), vehicle: saline) 90 % of control; under setting [4], 90 % of control.

As to `CCC(=O)Nc1ccccc1OS(=O)(=O)N(C)C`, the T/C under setting [2] was 97 % of control and the T/C under setting [3] was 98 % of control.

For the molecule `Cc1ccc(S(=O)(=O)NCl)cc1`, the T/C by setting is: under setting [9], 89 % of control; under setting [10], 94 % of control.

With `N=C(N)c1ccc(NC(=O)c2ccc(C(=O)Nc3ccc(C(=N)N)cc3)c(N)c2)cc1`, the T/C (endpoint: median survival time, dose: 12.5 mg/kg/injection, schedule: Q01DX009 (ip), vehicle: saline with Tween-80) is 101 % of control and 110 % of control; the T/C (endpoint: median survival time, dose: 25.0 mg/kg/injection, schedule: Q01DX009 (ip), vehicle: saline with Tween-80) was 102 % of control and 112 % of control; the T/C (endpoint: median survival time, dose: 50.0 mg/kg/injection, schedule: Q01DX009 (ip), vehicle: saline with Tween-80) is 119 % of control and 103 % of control; the T/C (endpoint: median survival time, dose: 100.0 mg/kg/injection, schedule: Q01DX009 (ip), vehicle: saline with Tween-80) is 121 % of control and 96 % of control and 112 % of control; the T/C (endpoint: median survival time, dose: 200.0 mg/kg/injection, schedule: Q01DX009 (ip), vehicle: saline with Tween-80) was 107 % of control.

`CN(C)S(=O)(=O)/C=C(\Cl)c1ccccc1`: the T/C (endpoint: mean survival time, dose: 100.0 mg/kg/injection, schedule: Q01DX001 (ip), vehicle: saline with Tween-80) was 97 % of control; the T/C (endpoint: mean survival time, dose: 200.0 mg/kg/injection, schedule: Q01DX001 (ip), vehicle: saline with Tween-80) was 100 % of control; the T/C (endpoint: mean survival time, dose: 400.0 mg/kg/injection, schedule: Q01DX001 (ip), vehicle: saline with Tween-80) was 104 % of control.

As for `O=C(N1CCC2(CC1)SSC1(CCN(C(=O)C(F)(F)F)CC1)S2)C(F)(F)F`, the T/C was 88 % of control under setting [1], 90 % of control under setting [2] and 90 % of control under setting [3].

Regarding `Cc1ccc(NC(=O)N(CCCl)N=O)c(C)c1`, the T/C was 167 % of control (endpoint: mean survival time, dose: 4.4 mg/kg/injection, schedule: Q01DX009 (ip), vehicle: other); 161 % of control (endpoint: mean survival time, dose: 6.6 mg/kg/injection, schedule: Q01DX009 (ip), vehicle: other); 183 % of control (endpoint: mean survival time, dose: 33.0 mg/kg/injection, schedule: Q01DX001 (ip), vehicle: other); 200 % of control (endpoint: mean survival time, dose: 50.0 mg/kg/injection, schedule: Q01DX001 (ip), vehicle: other); 178 % of control (endpoint: mean survival time, dose: 75.0 mg/kg/injection, schedule: Q01DX001 (ip), vehicle: other).

In the case of `CC(=O)N(C)c1ccc(Nc2cc(C)[nH]c3ccc4ncnc4c23)cc1`, the T/C was 114 % of control and 110 % of control (endpoint: mean survival time, dose: 6.25 mg/kg/injection, schedule: Q01DX009 (ip), vehicle: saline); 120 % of control and 110 % of control (endpoint: mean survival time, dose: 12.5 mg/kg/injection, schedule: Q01DX009 (ip), vehicle: saline); 118 % of control and 121 % of control under setting [9]; 119 % of control under setting [10]; 113 % of control and 100 % of control (endpoint: mean survival time, dose: 100.0 mg/kg/injection, schedule: Q01DX009 (ip), vehicle: saline); 156 % of control and 164 % of control (endpoint: median survival time, dose: 67.0 mg/kg/injection, schedule: Q01DX005 (ip), vehicle: saline). Besides, the T/C (endpoint: median survival time, dose: 100.0 mg/kg/injection, schedule: Q01DX005 (ip), vehicle: saline) was 160 % of control.

On to `Cc1ccc2c(C)cc(=O)[nH]c2c1`, for which the T/C by setting is: under setting [1], 95 % of control; under setting [2], 95 % of control; under setting [3], 101 % of control.

In the case of `O=C(O)C1C(=O)CC2(O)c3ccccc3-c3ccccc3C12` (stereo unspecified), the T/C is, setting by setting: (endpoint: mean survival time, dose: 100.0 mg/kg/injection, schedule: Q01DX001 (ip), vehicle: Klucel (hydroxypropylcellulose) (HPC)) 98 % of control; under setting [8], 96 % of control; (endpoint: mean survival time, dose: 200.0 mg/kg/injection, schedule: Q01DX001 (ip), vehicle: Klucel (hydroxypropylcellulose) (HPC)) 94 % of control; (endpoint: mean survival time, dose: 200.0 mg/kg/injection, schedule: Q04DX002 (ip), vehicle: saline with Tween-80) 93 % of control; (endpoint: mean survival time, dose: 400.0 mg/kg/injection, schedule: Q01DX001 (ip), vehicle: Klucel (hydroxypropylcellulose) (HPC)) 94 % of control; (endpoint: mean survival time, dose: 400.0 mg/kg/injection, schedule: Q04DX002 (ip), vehicle: saline with Tween-80) 93 % of control.

Consider `CCCCCC(O)C1CCCCC1C` (stereo unspecified), for which the T/C under setting [1] was 105 % of control, the T/C under setting [2] is 102 % of control and the T/C under setting [3] was 90 % of control.

For the origin of these results see PubChem BioAssay AID256 (DTP/NCI, 2004).
